This note sets out measurements from ChEMBL document CHEMBL1909046, “DrugMatrix in vitro pharmacology data”.

Structures are written as SMILES.

Test [1] deals with T1, Endothelin-1 receptor (Homo sapiens, UniProt P25101).
T1 sequence (P25101 whole entry): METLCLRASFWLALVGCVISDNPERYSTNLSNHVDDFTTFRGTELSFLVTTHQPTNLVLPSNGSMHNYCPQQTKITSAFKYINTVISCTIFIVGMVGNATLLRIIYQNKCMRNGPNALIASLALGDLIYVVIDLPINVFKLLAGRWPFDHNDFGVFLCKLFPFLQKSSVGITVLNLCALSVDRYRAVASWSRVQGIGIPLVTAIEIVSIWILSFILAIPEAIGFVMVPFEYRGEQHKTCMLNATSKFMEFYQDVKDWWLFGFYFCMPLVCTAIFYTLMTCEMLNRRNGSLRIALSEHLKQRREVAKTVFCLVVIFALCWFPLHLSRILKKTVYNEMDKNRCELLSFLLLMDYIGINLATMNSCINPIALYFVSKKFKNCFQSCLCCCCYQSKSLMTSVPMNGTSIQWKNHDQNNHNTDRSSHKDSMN
In kind it is cell membranes, Membrane. The note with it: cho-k1.

Test [2] addresses T2, Receptor-type tyrosine-protein phosphatase C (Homo sapiens, UniProt P08575).
T2 sequence (P08575 whole entry): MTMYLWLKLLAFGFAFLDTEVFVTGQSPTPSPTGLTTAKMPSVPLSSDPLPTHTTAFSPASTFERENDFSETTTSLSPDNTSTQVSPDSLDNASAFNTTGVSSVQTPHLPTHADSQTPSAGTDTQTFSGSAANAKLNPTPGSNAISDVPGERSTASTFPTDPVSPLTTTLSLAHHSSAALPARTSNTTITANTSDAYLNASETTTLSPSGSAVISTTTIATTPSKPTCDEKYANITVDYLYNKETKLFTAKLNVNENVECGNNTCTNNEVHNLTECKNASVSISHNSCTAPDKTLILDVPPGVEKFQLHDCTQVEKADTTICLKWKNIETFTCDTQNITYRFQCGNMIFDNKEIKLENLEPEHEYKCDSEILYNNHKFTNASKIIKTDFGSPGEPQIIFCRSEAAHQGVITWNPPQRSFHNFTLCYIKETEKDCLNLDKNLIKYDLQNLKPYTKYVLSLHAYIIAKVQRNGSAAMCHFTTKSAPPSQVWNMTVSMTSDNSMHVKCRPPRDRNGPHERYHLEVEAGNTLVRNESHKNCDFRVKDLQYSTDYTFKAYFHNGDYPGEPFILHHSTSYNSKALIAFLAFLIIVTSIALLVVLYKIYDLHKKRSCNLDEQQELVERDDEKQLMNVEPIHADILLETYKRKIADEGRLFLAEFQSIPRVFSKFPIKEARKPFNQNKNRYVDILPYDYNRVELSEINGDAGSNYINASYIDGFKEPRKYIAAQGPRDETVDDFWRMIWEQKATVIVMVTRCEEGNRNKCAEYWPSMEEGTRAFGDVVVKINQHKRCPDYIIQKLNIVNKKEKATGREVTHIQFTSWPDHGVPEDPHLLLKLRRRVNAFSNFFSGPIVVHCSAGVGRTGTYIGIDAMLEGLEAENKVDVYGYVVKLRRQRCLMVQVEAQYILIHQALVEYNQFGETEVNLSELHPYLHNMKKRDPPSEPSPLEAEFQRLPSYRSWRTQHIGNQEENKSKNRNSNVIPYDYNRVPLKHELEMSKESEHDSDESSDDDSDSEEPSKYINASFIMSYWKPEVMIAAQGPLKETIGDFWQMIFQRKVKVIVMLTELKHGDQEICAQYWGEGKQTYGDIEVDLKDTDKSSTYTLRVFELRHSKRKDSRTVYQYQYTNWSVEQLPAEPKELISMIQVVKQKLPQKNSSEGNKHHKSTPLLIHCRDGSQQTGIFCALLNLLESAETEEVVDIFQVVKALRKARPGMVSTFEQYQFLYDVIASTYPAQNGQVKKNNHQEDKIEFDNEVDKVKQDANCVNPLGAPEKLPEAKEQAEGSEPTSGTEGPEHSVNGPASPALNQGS
Also noted: species or system Escherichia coli.

Test [3] addresses C-C chemokine receptor type 2 (Homo sapiens, UniProt P41597). In kind it is cell membranes, CHO-K1, Membrane. The note with it: cho-k1.
In test [4] the target is Histamine H2 receptor (Homo sapiens, UniProt P25021). In kind it is cell membranes, CHO-K1, Membrane. The note with it: for Ki: read-out: Ki. As to all read-outs here: in other assays of this panel Not Active means under 50% inhibition at 10 µM.
Chain of Histamine H2 receptor (P25021 whole entry): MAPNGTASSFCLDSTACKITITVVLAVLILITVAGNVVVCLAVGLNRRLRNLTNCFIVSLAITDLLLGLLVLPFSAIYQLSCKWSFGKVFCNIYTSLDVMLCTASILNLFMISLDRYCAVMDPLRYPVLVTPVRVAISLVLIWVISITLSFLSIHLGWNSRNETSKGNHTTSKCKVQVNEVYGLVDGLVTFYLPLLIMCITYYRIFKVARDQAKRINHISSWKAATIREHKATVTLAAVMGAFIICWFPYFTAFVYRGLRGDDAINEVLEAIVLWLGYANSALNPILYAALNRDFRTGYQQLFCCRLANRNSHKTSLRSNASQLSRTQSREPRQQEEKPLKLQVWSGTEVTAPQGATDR
Test [5] concerns the target Protein kinase C alpha type (Homo sapiens, UniProt P17252). In kind it is cell-based. The conditions noted are these: sf9.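 Also: inhibition of PKCalpha kinase activity measured in an enzyme assay with histone as the phosphorylation substrate; in other assays of this panel Not Active means under 50% inhibition at 10 µM.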
Test [6] can be described thus: DRUGMATRIX: Tumor Necrosis Factor (TNF), Non-Selective radioligand binding (ligand: [125I] TNF-alpha). In kind it is cell membranes, Membrane. The conditions noted are these: u-937; Not Active = under 50% inhibition at 10 µM.
Test [7] deals with T3, Alpha-2C adrenergic receptor (Homo sapiens, UniProt P18825).
T3 sequence (P18825 whole entry): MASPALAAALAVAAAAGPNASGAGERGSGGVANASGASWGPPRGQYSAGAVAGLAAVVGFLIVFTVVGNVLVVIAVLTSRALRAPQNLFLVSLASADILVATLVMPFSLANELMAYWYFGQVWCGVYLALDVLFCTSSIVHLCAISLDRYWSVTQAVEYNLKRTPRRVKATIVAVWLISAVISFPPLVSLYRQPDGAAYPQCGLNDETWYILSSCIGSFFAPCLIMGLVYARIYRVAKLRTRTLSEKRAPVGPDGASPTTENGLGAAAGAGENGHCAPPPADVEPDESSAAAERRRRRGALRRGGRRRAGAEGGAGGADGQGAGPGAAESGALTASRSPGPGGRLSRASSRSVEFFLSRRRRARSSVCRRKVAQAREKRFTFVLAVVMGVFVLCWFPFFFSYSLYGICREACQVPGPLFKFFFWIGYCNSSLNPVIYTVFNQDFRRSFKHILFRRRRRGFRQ
The experiment in a line: DRUGMATRIX: Adrenergic Alpha-2C radioligand binding (ligand: [3H] MK-912). In kind it is cell membranes, Sf9, Membrane.

Chain of C-C chemokine receptor type 2 (P41597 whole entry): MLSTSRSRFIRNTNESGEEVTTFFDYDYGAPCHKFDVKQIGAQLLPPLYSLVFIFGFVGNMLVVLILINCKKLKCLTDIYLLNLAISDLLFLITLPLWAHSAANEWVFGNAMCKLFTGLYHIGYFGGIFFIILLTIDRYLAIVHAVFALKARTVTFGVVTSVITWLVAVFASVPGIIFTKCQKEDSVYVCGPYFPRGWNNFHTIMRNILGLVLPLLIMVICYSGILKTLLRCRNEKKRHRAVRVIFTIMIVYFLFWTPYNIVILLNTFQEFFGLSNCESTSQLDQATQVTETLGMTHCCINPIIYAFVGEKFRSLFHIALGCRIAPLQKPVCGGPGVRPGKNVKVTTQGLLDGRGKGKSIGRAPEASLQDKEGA

For the compound `OC[C@@H](O)[C@@H](O)[C@H](O)[C@H](O)CO` [MANNITOL], the half-inhibitory concentration (IC50) result in test [1], in test [2], in test [3], in test [4] (cho-k1), in test [5] and in test [6] was “Not Active” throughout. Further, the half-maximal inhibitory concentration (IC50) entry in test [7] (sf9) is recorded as “Not Active”. For the same compound, the Ki entry in test [6] was “Not Active”.
As to `COC(=O)Nc1nc2ccc(C(=O)c3ccccc3)cc2[nH]1` [MEBENDAZOLE], the IC50 entry in test [1], in test [2], in test [3], in test [4] (cho-k1), in test [5] and in test [6] was “Not Active” throughout. Also, the concentration for half-maximal inhibition (IC50) entry in test [7] (sf9) was “Not Active”. Also, the inhibitory constant (Ki) result in test [6] is “Not Active”.
On to `Cc1ccc(Cl)c(Nc2ccccc2C(=O)O)c1Cl` [MECLOFENAMIC ACID], for which the half-maximal inhibitory concentration (IC50) result in test [1], in test [2], in test [3], in test [4] (cho-k1), in test [5] and in test [6] was “Not Active” in each case. For the same compound, the IC50 entry in test [7] (sf9) was “Not Active”. Moreover, the inhibitory constant (Ki) entry in test [6] is “Not Active”.
Regarding `CC(=O)O[C@]1(C(C)=O)CC[C@H]2[C@@H]3C[C@H](C)C4=CC(=O)CC[C@]4(C)[C@H]3CC[C@@]21C` [MEDROXYPROGESTERONE ACETATE], the IC50 entry is “Not Active” in test [1]; “Not Active” in test [2]; “Not Active” in test [3]; 27900 nM in test [4] (read-out: IC50); “Not Active” in test [5]; “Not Active” in test [6]. For the same compound, the half-maximal inhibitory concentration (IC50) entry in test [7] (sf9) is given as “Not Active”. The Ki in test [4] is 27500 nM; in test [6], “Not Active”.
As to `Cc1cnc(NC(=O)C2=C(O)c3ccccc3S(=O)(=O)N2C)s1` [MELOXICAM], the half-inhibitory concentration (IC50) entry in test [1], in test [2], in test [3], in test [4] (cho-k1), in test [5] and in test [6] was “Not Active” throughout. In test [7] (sf9), the half-maximal inhibitory concentration (IC50) entry is reported as “Not Active”. Further, in test [6], the Ki entry is reported as “Not Active”.
In the case of `CN1C[C@H](CNC(=O)OCc2ccccc2)C[C@@H]2c3cccc4c3c(cn4C)C[C@H]21` [METERGOLINE], the IC50 entry in test [1] is “Not Active”; in test [2], “Not Active”; in test [3] it was “Not Active”; in test [4] (read-out: IC50), 975 nM; in test [5] it was “Not Active”; in test [6], “Not Active”. For the same compound, the IC50 in test [7] (read-out: IC50) was 189 nM. In addition, the Ki was 959 nM in test [4], “Not Active” in test [6] and 27 nM in test [7] (read-out: Ki).
`C[N+]1(C)[C@@H]2C[C@@H](OC(=O)[C@H](CO)c3ccccc3)C[C@H]1[C@@H]1O[C@@H]12.[Br-]` [METHSCOPOLAMINE BROMIDE]: the concentration for half-maximal inhibition (IC50) entry in test [1], in test [2], in test [3], in test [4] (cho-k1), in test [5] and in test [6] was “Not Active” in each case. For the same compound, the half-inhibitory concentration (IC50) result in test [7] (sf9) was “Not Active”. In addition, the inhibition constant (Ki) result in test [6] was “Not Active”.
For the compound `CCN(CC)CCNC(=O)c1cc(Cl)c(N)cc1OC` [METOCLOPRAMIDE], the IC50 entry in test [1], in test [2], in test [3], in test [4] (cho-k1), in test [5] and in test [6] was “Not Active” in each case. Further, in test [7] (sf9), the IC50 result was “Not Active”. The inhibition constant Ki result in test [6] was “Not Active”.
Consider `CC[C@H](C)C(=O)O[C@H]1CCC=C2C=C[C@H](C)[C@H](CC[C@@H]3C[C@@H](O)CC(=O)O3)[C@H]21` [MEVASTATIN], for which the IC50 result in test [1], in test [2], in test [3], in test [4] (cho-k1), in test [5] and in test [6] was “Not Active” throughout. In test [7] (sf9), the IC50 result is recorded as “Not Active”. In test [6], the Ki result was “Not Active”.
Take `CC#C[C@]1(O)CC[C@H]2[C@@H]3CCC4=CC(=O)CCC4=C3[C@@H](c3ccc(N(C)C)cc3)C[C@@]21C` [MIFEPRISTONE]: the 50% inhibitory concentration (IC50) entry in test [1], in test [2], in test [3], in test [4] (cho-k1), in test [5] and in test [6] was “Not Active” throughout. In addition, the half-maximal inhibitory concentration (IC50) entry in test [7] (sf9) is listed as “Not Active”. In test [6], the Ki result is on record as “Not Active”.
Take `Cc1[nH]c(=O)c(C#N)cc1-c1ccncc1` [MILRINONE]: the IC50 result in test [1], in test [2], in test [3], in test [4] (cho-k1), in test [5] and in test [6] was “Not Active” in each case. The IC50 entry in test [7] (sf9) is listed as “Not Active”. Further, the Ki result in test [6] is recorded as “Not Active”.
For the compound `CO[C@@]12[C@H](COC(N)=O)C3=C(C(=O)C(C)=C(N)C3=O)N1C[C@@H]1N[C@@H]12` [MITOMYCIN], the IC50 result in test [1], in test [2], in test [3], in test [4] (cho-k1), in test [5] and in test [6] was “Not Active” in each case. Besides, the IC50 result in test [7] (sf9) was “Not Active”. Moreover, the Ki result in test [6] is reported as “Not Active”.
On to `CCOc1cc(N)c(Cl)cc1C(=O)NCC1CN(Cc2ccc(F)cc2)CCO1` (stereo not drawn) [MOSAPRIDE], for which the 50% inhibitory concentration (IC50) result in test [1], in test [2], in test [3], in test [4] (cho-k1), in test [5] and in test [6] was “Not Active” throughout. Besides, in test [7] (sf9), the IC50 result is reported as “Not Active”. Also, the Ki result in test [6] was “Not Active”.
Take `CCN(CC)N=O` [N-NITROSODIETHYLAMINE]: the IC50 result in test [1], in test [2], in test [3], in test [4] (cho-k1), in test [5] and in test [6] was “Not Active” each time. Further, the half-maximal inhibitory concentration (IC50) result in test [7] (sf9) was “Not Active”. In addition, in test [6], the inhibitory constant (Ki) entry is “Not Active”.
For the compound `O=C1CC[C@@]2(O)[C@H]3Cc4ccc(O)c5c4[C@@]2(CCN3CC2CC2)[C@H]1O5` [NALTREXONE], the IC50 entry in test [1], in test [2], in test [3], in test [4] (cho-k1), in test [5] and in test [6] was “Not Active” in each case. Besides, the half-maximal inhibitory concentration (IC50) entry in test [7] (sf9) is “Not Active”. Moreover, the inhibition constant Ki result in test [6] is on record as “Not Active”.
